The results in this text go back to ChEMBL document CHEMBL1201862, “PubChem BioAssay data set” (2004).

Structures are written as SMILES.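 1) Cells in 96-well plates. 2) Compound, 48 h, 5 concentrations. 3) Linear interpolation between surrounding doses. 4) Unreached endpoint = highest concentration. GI50: concentration for 50% inhibition of growth.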 The source made the active and inactive calls. Cut-off read from the data, not from the text of the source: active = GI50 up to about 1.1 µM and inactive = higher.

Test systems include SF-268; NCI-H226; UACC-257; SR; IGROV-1; A549; HCT-15; UACC-62; M14; SW-620; SF-295; COLO 205; NCI-H522; Malme-3M; SNB-19.
Common to all, as to assay: growth of human tumour cells (NCI), 48 h

In the case of `c1ccc2c(CNCCCN3CCN(CCCNCc4cccc5ccccc45)CC3)cccc2c1`, the GI50 in the test with SF-268 is 2.37 µM (inactive); in the test on NCI-H226, 2.81 µM (inactive); in the test on UACC-257, 1.92 µM (inactive); with SR, 0.655 µM (active); in the test on IGROV-1, 3.07 µM (inactive); in the test on A549, 2.01 µM (inactive). Besides, the GI50 in the test with HCT-15 is 1.8 µM; with UACC-62 it was 1.79 µM (inactive); in the test on M14 it was 1.18 µM (inactive); with SW-620, 1.77 µM (inactive); with SF-295, 1.77 µM (inactive); with COLO 205, 2.06 µM (inactive). Further, the GI50 in the test on NCI-H522 is 1.59 µM (inactive); with Malme-3M, 2.06 µM (inactive).
As to `COC(=O)Cc1cc(=O)[nH]c2c1C(=O)CCC2`, the GI50 in the test with SNB-19, in the test on SF-268, with NCI-H226, in the test with UACC-257, with SR and in the test on IGROV-1 was > 100 µM (inactive) each time. Moreover, the GI50 in the test on A549 was > 100 µM (inactive); in the test on HCT-15 it was greater than 100 µM; with M14 it was > 100 µM (inactive); with SW-620, > 100 µM (inactive); in the test on SF-295, > 100 µM (inactive); in the test with NCI-H522, > 100 µM (inactive). In addition, the GI50 in the test with Malme-3M is > 100 µM (inactive).
Take `CCC(=O)c1cn(C)c(=O)c2ccccc12`: the GI50 with SNB-19, in the test with SF-268, in the test with NCI-H226, in the test with UACC-257, in the test with SR and in the test on IGROV-1 was > 100 µM (inactive) in each case. For the same molecule, the GI50 in the test on A549 was > 100 µM (inactive); in the test with HCT-15 it was greater than 100 µM; in the test with UACC-62, > 100 µM (inactive); in the test with M14, > 100 µM (inactive); in the test with SW-620 it was > 100 µM (inactive); with SF-295 it was > 100 µM (inactive). Besides, the GI50 in the test on COLO 205, in the test on NCI-H522 and in the test with Malme-3M was > 100 µM (inactive) each time.
With `O=[N+]([O-])c1ccc(/C=C/c2ccc(/C=C/c3ccc([N+](=O)[O-])cc3[N+](=O)[O-])cc2)c([N+](=O)[O-])c1`, the GI50 was > 100 µM (inactive) in the test on NCI-H226; > 100 µM (inactive) in the test on UACC-257; > 100 µM (inactive) in the test on IGROV-1; > 100 µM (inactive) in the test on A549; greater than 100 µM in the test on HCT-15; > 100 µM (inactive) in the test with UACC-62. Further, the GI50 in the test on M14, in the test with SW-620, with SF-295 and in the test on Malme-3M was > 100 µM (inactive) throughout.
For `NC1=NC(=O)C(CC(=O)Nc2ccc([N+](=O)[O-])cc2[N+](=O)[O-])S1` (stereo not drawn), the GI50 with SNB-19, with SF-268, in the test on NCI-H226, in the test on UACC-257, with IGROV-1 and with A549 was > 100 µM (inactive) in each case. Moreover, the GI50 with UACC-62, in the test with M14, with SW-620, in the test on SF-295, in the test with COLO 205 and with Malme-3M was > 100 µM (inactive) in each case.
For the molecule `O=S(=O)(O)CS(=O)(=O)OCCCl`, the GI50 in the test with SNB-19, in the test with SF-268, with NCI-H226, in the test on UACC-257, in the test with SR and with IGROV-1 was > 100 µM (inactive) in each case. Further, the GI50 in the test on A549, in the test with UACC-62, in the test on M14, with SW-620, in the test with SF-295 and with COLO 205 was > 100 µM (inactive) throughout. The GI50 in the test with NCI-H522 and with Malme-3M was > 100 µM (inactive) throughout.
In the case of `COc1ccc(NC(=O)CC(=O)n2nc(-c3ccccc3)c(/N=N/c3ccccc3C(=O)O)c2-c2ccccc2)cc1`, the GI50 was 63 µM (inactive) in the test with SNB-19; > 100 µM (inactive) in the test with SF-268; 69.3 µM (inactive) in the test with NCI-H226; 62.2 µM (inactive) in the test with SR; 83.4 µM (inactive) with IGROV-1; > 100 µM (inactive) in the test with A549. The GI50 in the test on HCT-15 is greater than 100 µM; in the test with UACC-62, > 100 µM (inactive); in the test on SW-620, > 100 µM (inactive); with SF-295, 42.4 µM (inactive); in the test with COLO 205 it was > 100 µM (inactive); with NCI-H522, > 100 µM (inactive).
`COC1/C(=C\C(C)=O)c2ccccc2N1C(C)=O` (stereo not drawn): the GI50 is > 100 µM (inactive) in the test on SNB-19; > 100 µM (inactive) in the test with UACC-257; > 100 µM (inactive) in the test with SR; > 100 µM (inactive) in the test on IGROV-1; > 100 µM (inactive) in the test on A549; greater than 100 µM with HCT-15. Also, the GI50 in the test on UACC-62, in the test on M14, in the test with SW-620, in the test on SF-295 and with COLO 205 was > 100 µM (inactive) each time.
For `COc1ccc2c(c1)[n+]([O-])c(C(N)=O)c(N)[n+]2[O-]`, the GI50 in the test on SNB-19 was > 100 µM (inactive); with NCI-H226, > 100 µM (inactive); with UACC-257, 28.6 µM (inactive); with SR, > 100 µM (inactive); with IGROV-1, 75.7 µM (inactive); in the test with A549, > 100 µM (inactive). Besides, the GI50 is 61 µM with HCT-15; 75.5 µM (inactive) in the test on M14; 57.9 µM (inactive) with SW-620; > 100 µM (inactive) with SF-295; 24.4 µM (inactive) in the test with COLO 205; 17.1 µM (inactive) in the test with NCI-H522. Besides, the GI50 in the test with Malme-3M is > 100 µM (inactive).
For the molecule `CC1(SCC(N)C(=O)O)CC(=O)NC1=O` (stereo not drawn), the GI50 in the test on SNB-19, with SF-268, in the test with NCI-H226, in the test with UACC-257, in the test with SR and in the test on IGROV-1 was > 100 µM (inactive) each time. The GI50 in the test on A549 was > 100 µM (inactive); in the test with HCT-15, greater than 100 µM; in the test with UACC-62 it was > 100 µM (inactive); in the test with SW-620, > 100 µM (inactive); in the test on SF-295 it was > 100 µM (inactive); in the test on COLO 205, > 100 µM (inactive). Besides, in the test with NCI-H522, the GI50 is > 100 µM (inactive).
As to `N#Cc1c(NN)nc(NN)c(C#N)c1-c1ccccc1`, the GI50 in the test on SNB-19 is > 100 µM (inactive); in the test with SF-268 it was > 100 µM (inactive); in the test on NCI-H226, 52.8 µM (inactive); in the test with UACC-257, > 100 µM (inactive); in the test on IGROV-1 it was > 100 µM (inactive); with A549, > 100 µM (inactive). The GI50 in the test on HCT-15 was greater than 100 µM; in the test with UACC-62, > 100 µM (inactive); in the test on M14, > 100 µM (inactive); in the test with SW-620, > 100 µM (inactive); with SF-295, > 100 µM (inactive); with COLO 205 it was > 100 µM (inactive). Also, the GI50 in the test with Malme-3M was > 100 µM (inactive).
`CCOC(=O)C/C(=N\c1cc(C)on1)N(CC)CC.[O-][Cl+3]([O-])([O-])O`: the GI50 with SNB-19, with SF-268, in the test on NCI-H226, with SR, in the test on IGROV-1 and in the test on A549 was > 100 µM (inactive) throughout. Also, the GI50 in the test on HCT-15 is greater than 100 µM; with UACC-62, > 100 µM (inactive); in the test with M14, > 100 µM (inactive); in the test on SW-620, > 100 µM (inactive); with COLO 205, > 100 µM (inactive); in the test with NCI-H522, > 100 µM (inactive). For the same molecule, the GI50 with Malme-3M is > 100 µM (inactive).
Regarding `Nc1nc(SCc2ccccc2Cl)c2ncn(C3OC(CO)C(O)C3O)c2n1` (stereo not drawn), the GI50 with SNB-19 was 38.8 µM (inactive); with SF-268, 80.4 µM (inactive); with SR, 42.7 µM (inactive); in the test on IGROV-1, > 100 µM (inactive); in the test on A549, 96.6 µM (inactive); with HCT-15, greater than 100 µM. In addition, the GI50 with UACC-62 is 72.3 µM (inactive); in the test with M14 it was > 100 µM (inactive); with SW-620, > 100 µM (inactive); with SF-295, 59.4 µM (inactive); in the test on COLO 205, > 100 µM (inactive); with NCI-H522, 30.1 µM (inactive). Further, in the test on Malme-3M, the GI50 was > 100 µM (inactive).
As to `CC(=O)CC(=O)CCCC(=O)Nc1ccc(Cl)cc1C`, the GI50 in the test with SNB-19, in the test with SF-268, in the test with NCI-H226, in the test on UACC-257, in the test with IGROV-1 and in the test on A549 was > 100 µM (inactive) throughout. Besides, the GI50 in the test on HCT-15 was greater than 100 µM; with UACC-62 it was > 100 µM (inactive); in the test on M14, > 100 µM (inactive); in the test with SW-620, > 100 µM (inactive); with SF-295 it was > 100 µM (inactive); with COLO 205, > 100 µM (inactive). In addition, the GI50 with NCI-H522 and in the test with Malme-3M was > 100 µM (inactive) throughout.
As for `O=[N+]([O-])c1cc2c(cc1O)[nH]c1cccc([N+](=O)[O-])c12`, the GI50 with SNB-19, in the test on SF-268, in the test with NCI-H226, in the test with UACC-257, in the test with SR and with A549 was > 100 µM (inactive) each time. Besides, the GI50 is greater than 100 µM with HCT-15; > 100 µM (inactive) with M14; > 100 µM (inactive) in the test with SW-620; > 100 µM (inactive) in the test on SF-295; > 100 µM (inactive) in the test on COLO 205; > 100 µM (inactive) in the test on NCI-H522. The GI50 in the test on Malme-3M was > 100 µM (inactive).
Consider `COc1ccc(Br)c(CCCCC(=O)O)c1`, for which the GI50 with SNB-19 is > 100 µM (inactive); in the test with UACC-257, > 100 µM (inactive); in the test with IGROV-1, > 100 µM (inactive); in the test with A549, > 100 µM (inactive); with HCT-15, greater than 100 µM; in the test with UACC-62, > 100 µM (inactive). For the same molecule, the GI50 in the test on M14, in the test on SW-620, with SF-295 and in the test on COLO 205 was > 100 µM (inactive) in each case.
